Assay results: patent US20050080027A1, “Optimized production of viral vectors derived from paroviruses in packaging and production cells by hsv infection or treatment with dna methylation inhibitors” (priority 2001, published 2005)

These compounds were tested on HeLa t-derived AAV producer cells (assay: Production of rAAV-(B7.2/GM-CSF) in producer cells using different inhibitors or helper viruses (transducing rAAV titer / AAV packaging efficiency)). Settings: AdV MOI 10 alone or with 50 mM Na butyrate, 3 μM trichostatin A or 3 μM 5-azacytidine, or HSV-1 MOI 10 as helper virus, three days after infection.
Format: cell-based
From the text: The use, according to the invention, of the DNA methylation inhibitor leads to an increase in packaging efficiency to a level of at least 10^6, especially 10^7, preferably 10^8, in particular 10^9, transducing particles/ml of crude lyzate or of at least 10^10, especially 10^11, preferably 10^12, in particular 10^13, genomic particles/ml of crude lyzate. This corresponds to 10^5 to 10^8 genomic particles per sown cell. The packaging efficiency can be determined indirectly by using suitable cell lines to determine the transducing AAV titer. While this was effected specifically in this present case by measuring the B7.2-positive cells by fluorescence-labeling B7.2 and counting by means of FACS analysis, another common protein detection method can be used in the case of other transgenes. The transducing titer depends on the detection method and on the cell type employed, which means that it is necessary to select suitable cells when choosing the system for detecting the corresponding parvovirus or AAV serotype, for example HeLa cells in the case of AAV-2. The genomic titer is independent of the cell type. The genomic titer can be ascertained by means of real-time PCR, for example as described by Veldwijk M R et al. (2002) Mol. Ther. 6:272-8.
AdV was administered either alone or in combination with 50 mM Na butyrate (But), 3 μM trichostatin A (TSA) or 3 μM 5-azacytidine (Aza) (Sigma, Deisenhofen). “Standard” means transient cotransfection of HeLa cells with pAAV-(B7.2/GM-CSF) and the AAV-2 rep/cap helper plasmid and infection with adenovirus (AdV) (MOI 10); harvesting, 3 days after infection;
rAAV-(B7.2/GM-CSF) was initially prepared using producer cell lines (e.g. 1×10^6 cells sown in a 6 cm diameter cell culture dish, with the cells being sown 1 day before the infection) by infecting with adenovirus (multiplicity of infection, MOI 10). […] After 72 hours, the lyzates were prepared by freeze/thaw lysis and freed from the cell debris. Adenovirus […] HSV-1 was heat-inactivated at 56° C. […]
With Nc1ncn([C@@H]2O[C@H](CO)[C@@H](O)[C@H]2O)c(=O)n1 [Aza, 5-azacytidine] the “AAV packaging efficiency (yield of transducing rAAV particles)” value (from here on “AAV packaging efficiency”) was “restore this AAV packaging efficiency”. CCCC(=O)[O-].[Na+] [But, Na butyrate] was tested, and the “AAV packaging efficiency” value was “did not result in an increase in AAV packaging efficiency”. In the case of CC(/C=C/C(=O)NO)=C\[C@@H](C)C(=O)c1ccc(N(C)C)cc1 [TSA, trichostatin A], the “AAV packaging efficiency” value is reported as “did not result in an increase in AAV packaging efficiency”.
